Results reported in PMC7827406, “Structure–Activity Relationship (SAR) Study of Spautin-1 to Entail the Discovery of Novel NEK4 Inhibitors” (International Journal of Molecular Sciences, 2021).
Read-outs that look alike come from different tables or passages of the source.

Experiments:
Test in all cases: biochemical
Set-up in all cases: Eurofins KinaseProfiler full panel at Km ATP, residual kinase activity (%) relative to DMSO
MuSK(h) = target: T1, MuSK(h) (Homo sapiens, UniProt O15146)
T1 sequence (O15146 1-869): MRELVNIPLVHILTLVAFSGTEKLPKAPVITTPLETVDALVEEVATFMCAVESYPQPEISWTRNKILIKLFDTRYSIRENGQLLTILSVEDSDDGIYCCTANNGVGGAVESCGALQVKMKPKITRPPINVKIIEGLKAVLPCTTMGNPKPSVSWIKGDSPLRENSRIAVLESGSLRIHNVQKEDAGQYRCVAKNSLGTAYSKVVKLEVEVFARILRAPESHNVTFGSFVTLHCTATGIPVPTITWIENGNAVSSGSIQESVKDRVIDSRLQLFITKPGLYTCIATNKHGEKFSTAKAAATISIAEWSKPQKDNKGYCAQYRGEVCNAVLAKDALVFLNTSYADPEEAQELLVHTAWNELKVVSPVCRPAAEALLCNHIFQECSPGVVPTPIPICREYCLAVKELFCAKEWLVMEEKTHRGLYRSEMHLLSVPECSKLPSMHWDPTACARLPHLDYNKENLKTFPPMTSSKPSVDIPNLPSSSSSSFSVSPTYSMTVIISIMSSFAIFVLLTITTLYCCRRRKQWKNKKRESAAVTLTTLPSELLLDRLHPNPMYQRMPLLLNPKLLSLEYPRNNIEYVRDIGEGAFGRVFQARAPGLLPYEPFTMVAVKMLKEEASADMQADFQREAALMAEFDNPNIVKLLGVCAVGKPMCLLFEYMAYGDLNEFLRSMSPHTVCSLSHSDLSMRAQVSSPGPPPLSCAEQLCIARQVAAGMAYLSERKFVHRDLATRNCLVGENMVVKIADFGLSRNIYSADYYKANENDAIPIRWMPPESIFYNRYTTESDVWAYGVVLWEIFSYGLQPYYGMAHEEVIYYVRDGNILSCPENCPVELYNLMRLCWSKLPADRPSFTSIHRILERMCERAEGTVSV
How it was run: (§1)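 Radiometric kinase activity assays were run with ATP at Km and compounds at 10 µM, and remaining activity (%) was reported. A separate competitive binding screen measured DNA-tagged kinase displaced from immobilized active-site ligands by qPCR, giving percent kinase still bound at 10 µM compound in DMSO.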

Rse(h) = target: T2, Rse(h) (Homo sapiens, UniProt Q06418)
T2 construct: gene TYRO3
T2 sequence (Q06418 1-890): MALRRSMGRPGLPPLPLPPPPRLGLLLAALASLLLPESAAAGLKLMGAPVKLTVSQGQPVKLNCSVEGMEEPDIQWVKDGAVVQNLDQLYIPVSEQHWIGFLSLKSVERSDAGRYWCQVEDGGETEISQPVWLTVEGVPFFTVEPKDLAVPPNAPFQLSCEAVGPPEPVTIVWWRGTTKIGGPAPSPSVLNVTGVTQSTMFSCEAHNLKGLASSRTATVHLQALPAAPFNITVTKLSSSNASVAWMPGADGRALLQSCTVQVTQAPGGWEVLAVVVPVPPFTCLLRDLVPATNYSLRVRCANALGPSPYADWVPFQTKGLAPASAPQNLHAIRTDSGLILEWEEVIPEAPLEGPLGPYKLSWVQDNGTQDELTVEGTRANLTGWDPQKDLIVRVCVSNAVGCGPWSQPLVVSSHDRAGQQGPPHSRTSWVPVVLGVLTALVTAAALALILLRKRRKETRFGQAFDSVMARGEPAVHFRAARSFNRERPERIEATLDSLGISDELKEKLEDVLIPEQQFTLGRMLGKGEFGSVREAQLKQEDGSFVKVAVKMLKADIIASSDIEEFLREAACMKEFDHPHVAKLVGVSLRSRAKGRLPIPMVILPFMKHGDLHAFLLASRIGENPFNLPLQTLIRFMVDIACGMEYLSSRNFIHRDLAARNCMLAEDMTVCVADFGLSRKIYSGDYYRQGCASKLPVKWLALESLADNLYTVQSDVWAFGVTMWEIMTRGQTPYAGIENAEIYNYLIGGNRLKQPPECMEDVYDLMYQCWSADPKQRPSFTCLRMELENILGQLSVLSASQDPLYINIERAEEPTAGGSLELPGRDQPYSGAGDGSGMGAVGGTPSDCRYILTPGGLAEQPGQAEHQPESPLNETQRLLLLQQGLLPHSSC
How it was run: as §1

HPK1(h) = target: T3, HPK1(h) (Homo sapiens, UniProt Q92918)
T3 construct: gene MAP4K1
T3 sequence (Q92918 whole entry): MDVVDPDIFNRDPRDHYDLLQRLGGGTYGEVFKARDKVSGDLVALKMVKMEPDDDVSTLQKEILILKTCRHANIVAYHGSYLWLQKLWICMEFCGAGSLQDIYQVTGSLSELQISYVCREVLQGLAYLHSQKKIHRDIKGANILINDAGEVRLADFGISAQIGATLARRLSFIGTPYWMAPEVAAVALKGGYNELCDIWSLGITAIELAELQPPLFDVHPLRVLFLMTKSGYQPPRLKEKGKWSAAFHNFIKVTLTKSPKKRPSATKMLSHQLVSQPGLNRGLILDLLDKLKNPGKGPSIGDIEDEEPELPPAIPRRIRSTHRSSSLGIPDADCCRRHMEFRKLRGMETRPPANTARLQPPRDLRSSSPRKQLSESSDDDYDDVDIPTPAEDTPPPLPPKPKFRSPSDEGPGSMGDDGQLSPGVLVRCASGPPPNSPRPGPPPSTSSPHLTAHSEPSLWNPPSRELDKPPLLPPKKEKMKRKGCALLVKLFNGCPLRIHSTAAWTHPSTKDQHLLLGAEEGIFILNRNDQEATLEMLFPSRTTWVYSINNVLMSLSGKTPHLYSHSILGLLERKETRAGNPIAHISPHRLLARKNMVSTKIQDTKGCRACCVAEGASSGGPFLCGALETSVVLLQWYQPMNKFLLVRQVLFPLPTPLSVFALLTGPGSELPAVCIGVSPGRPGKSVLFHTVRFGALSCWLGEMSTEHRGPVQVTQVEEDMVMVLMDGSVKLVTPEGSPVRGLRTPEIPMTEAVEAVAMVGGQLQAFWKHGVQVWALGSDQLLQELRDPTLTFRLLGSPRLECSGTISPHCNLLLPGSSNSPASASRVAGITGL
How it was run: as §1

TrkA(h) = target: T4, TrkA(h) (Homo sapiens, UniProt P04629)
T4 construct: gene NTRK1
T4 sequence (P04629 whole entry): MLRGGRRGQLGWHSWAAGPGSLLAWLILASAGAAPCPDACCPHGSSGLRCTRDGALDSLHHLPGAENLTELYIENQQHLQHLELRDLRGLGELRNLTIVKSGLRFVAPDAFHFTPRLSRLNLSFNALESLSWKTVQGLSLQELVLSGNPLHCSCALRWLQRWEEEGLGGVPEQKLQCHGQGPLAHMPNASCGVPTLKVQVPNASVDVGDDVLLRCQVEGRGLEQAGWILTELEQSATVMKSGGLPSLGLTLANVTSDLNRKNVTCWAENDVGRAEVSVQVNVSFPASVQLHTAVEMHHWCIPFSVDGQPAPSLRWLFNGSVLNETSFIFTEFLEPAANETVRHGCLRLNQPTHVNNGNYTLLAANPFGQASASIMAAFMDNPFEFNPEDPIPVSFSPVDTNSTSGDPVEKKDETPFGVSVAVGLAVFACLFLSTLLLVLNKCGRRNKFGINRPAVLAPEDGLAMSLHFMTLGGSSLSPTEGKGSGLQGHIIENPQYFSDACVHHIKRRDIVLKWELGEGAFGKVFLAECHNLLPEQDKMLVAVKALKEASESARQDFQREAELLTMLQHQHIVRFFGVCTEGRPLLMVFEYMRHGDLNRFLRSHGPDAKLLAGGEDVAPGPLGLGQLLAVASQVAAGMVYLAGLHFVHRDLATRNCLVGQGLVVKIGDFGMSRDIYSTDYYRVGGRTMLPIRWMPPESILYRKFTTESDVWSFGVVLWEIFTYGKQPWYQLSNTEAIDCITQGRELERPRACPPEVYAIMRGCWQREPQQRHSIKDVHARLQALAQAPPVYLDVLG
How it was run: as §1

EGFR(L861Q)(h) = EGFR(L861Q)(h) (Homo sapiens, UniProt P00533, L861Q)
Sequence of EGFR(L861Q)(h) (P00533 whole entry L861Q): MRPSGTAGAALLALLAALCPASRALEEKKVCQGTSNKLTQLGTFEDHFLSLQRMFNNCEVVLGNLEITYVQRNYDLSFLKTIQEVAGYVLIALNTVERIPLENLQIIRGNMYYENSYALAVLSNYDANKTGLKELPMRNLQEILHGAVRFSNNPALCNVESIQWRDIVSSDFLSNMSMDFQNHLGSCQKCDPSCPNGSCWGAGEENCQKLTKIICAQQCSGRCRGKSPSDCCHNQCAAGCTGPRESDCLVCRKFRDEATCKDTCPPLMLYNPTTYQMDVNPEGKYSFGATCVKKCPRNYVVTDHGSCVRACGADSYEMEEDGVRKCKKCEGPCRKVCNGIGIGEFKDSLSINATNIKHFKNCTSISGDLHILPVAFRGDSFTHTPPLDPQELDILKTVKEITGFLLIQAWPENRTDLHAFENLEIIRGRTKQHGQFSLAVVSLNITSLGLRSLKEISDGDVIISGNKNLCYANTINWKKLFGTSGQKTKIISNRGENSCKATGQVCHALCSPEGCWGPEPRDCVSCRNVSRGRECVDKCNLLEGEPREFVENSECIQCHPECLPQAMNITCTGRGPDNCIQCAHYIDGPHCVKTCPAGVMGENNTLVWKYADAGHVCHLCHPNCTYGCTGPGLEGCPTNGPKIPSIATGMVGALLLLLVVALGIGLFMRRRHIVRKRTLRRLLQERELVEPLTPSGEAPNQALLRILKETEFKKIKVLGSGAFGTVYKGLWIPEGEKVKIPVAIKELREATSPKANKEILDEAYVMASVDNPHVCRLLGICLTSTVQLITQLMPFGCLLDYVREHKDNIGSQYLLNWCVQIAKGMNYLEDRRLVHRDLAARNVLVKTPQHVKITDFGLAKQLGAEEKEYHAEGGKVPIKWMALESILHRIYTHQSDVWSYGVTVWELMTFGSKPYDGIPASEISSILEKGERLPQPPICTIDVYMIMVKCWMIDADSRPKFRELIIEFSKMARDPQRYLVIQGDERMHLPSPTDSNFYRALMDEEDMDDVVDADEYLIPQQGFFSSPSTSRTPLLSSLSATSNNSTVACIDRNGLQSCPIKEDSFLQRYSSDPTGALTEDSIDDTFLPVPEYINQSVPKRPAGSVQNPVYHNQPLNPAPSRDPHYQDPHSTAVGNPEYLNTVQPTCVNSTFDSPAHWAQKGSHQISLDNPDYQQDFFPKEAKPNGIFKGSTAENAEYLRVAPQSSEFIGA
How it was run: as §1

[1] = read-out: Residual activity (%) Spautin-1 5aa
[2] = read-out: Residual activity (%) 5as
[3] = read-out: Residual activity (%) 5at
[4] = read-out: Residual activity (%) 5ay

Molecule `Fc1ccc(CNc2ncnc3ccc(F)cc23)cc1` [5aa, 6-Fluoro-N-(4-fluorobenzyl)-4-Quinazolinamine] has a remaining activity at 10 µM (MuSK(h); [1]) of 74%, a remaining activity at 10 µM (Rse(h); [1]) of 104% and a remaining activity at 10 µM (HPK1(h); [1]) of 92%. It also gave a remaining activity at 10 µM (TrkA(h); [1]) of 65% and a remaining activity at 10 µM (EGFR(L861Q)(h); [1]) of 36%.
With `Fc1ccc(CCNc2ncnc3ccc(F)cc23)cc1` [5as, 6-Fluoro-N-[2-(4-Fluorophenyl)Ethyl]-4-Quinazolinamine] the remaining activity at 10 µM (MuSK(h); [2]) was 81%, the remaining activity at 10 µM (Rse(h); [2]) was 100% and the remaining activity at 10 µM (HPK1(h); [2]) was 98%. The remaining activity at 10 µM (TrkA(h); [2]) was 87% and the remaining activity at 10 µM (EGFR(L861Q)(h); [2]) was 51%.
For `Fc1ccc2ncnc(NCCc3ccc(Cl)cc3)c2c1` [5at, N-[2-(4-Chlorophenyl)Ethyl]-6-Fluoro-4-Quinazolinamine], the remaining activity at 10 µM (MuSK(h); [3]) was 97%, the remaining activity at 10 µM (Rse(h); [3]) was 103% and the remaining activity at 10 µM (HPK1(h); [3]) was 96%. For the same molecule, the remaining activity at 10 µM (TrkA(h); [3]) was 60% and the remaining activity at 10 µM (EGFR(L861Q)(h); [3]) was 73%.
For `COc1ccc2ncnc(Nc3cccc(F)c3)c2c1` [5ay, N-(3-Fluorophenyl)-6-Methoxy-4-Quinazolinamine], the remaining activity at 10 µM (MuSK(h); [4]) was 70%, the remaining activity at 10 µM (Rse(h); [4]) was 107% and the remaining activity at 10 µM (HPK1(h); [4]) was 92%. The remaining activity at 10 µM (TrkA(h); [4]) was 70%.
